Test results reported in patent publication US20250092065A1, “2-(INDAZOL-5-YL)-6-(PIPERIDIN-4-YL)-1,7-NAPHTHYRIDINE DERIVATIVES AND RELATED COMPOUNDS AS MODULATORS FOR SPLICING NUCLEIC ACIDS AND FOR THE TREATMENT OF PROLIFERATIVE DISEASES” (REMIX THERAPEUTICS INC., priority 2022, published 2025).
Like-named read-outs stand apart in the source and are kept apart here.

Legend:
[1] = test system: K562 cells; assay: Cell Titer Glo 2.0 cell viability (toxicity) assay, K562; settings: 500 cells/well, 72 hours
[2] = test system: Target C; assay: RT-qPCR canonical junction panel assay, Target C mRNA; type: cell-based; settings: Table 4, read-out: Target C IC50 (decrease in CJ mRNA levels)
In short: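 A673 or K562 cells treated with compound; CJ mRNA quantified by junction-spanning RT-qPCR probe after cDNA synthesis, normalised to GAPDH, GUSB or PPIA and DMSO (2^−ΔΔCt), scaled to set ΔCt assay window; IC50 from 4-parameter fit of CJ decrease.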

[3] = test system: HTT mRNA; assay: RT-qPCR splicing assay, HTT mRNA canonical (CJ) and alternative (AJ) junction; type: cell-based, human; settings: for AC50: HTT alternative junction mRNA, read-out: HTT AJ (increase in AJ mRNA, AC50)
In short: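 A673 or K562 cells treated 24 h at 37 °C with an 11-point 3-fold dilution series (top 10 uM, DMSO ≤0.25%). Lysates went directly to one-step RT-qPCR quantifying canonical (CJ) and alternative-exon (AJ) junctions, normalized to GAPDH, GUSB or PPIA. Values from ΔΔCt versus DMSO, RQ = 2^(−ΔΔCt), expressed as percentage response.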

[4] = Homo sapiens, HTT canonical junction mRNA, RT-qPCR, read-out: HTT CJ (decrease in CJ mRNA levels, IC50)
[5] = Homo sapiens, canonical junction qPCR panel, Table 4, read-out: HTT IC50 (decrease in CJ mRNA levels)

## Cn1cc2cc(-c3ccc4nc(N5CCC(NC6CC6)C5)ccc4n3)c(O)c(F)c2n1 (racemic) [Compound 287, 5-{6-[3-(cyclopropylamino)pyrrolidin-1-yl]-1,5-naphthyridin-2-yl}-7-fluoro-2-methylindazol-6-ol; trifluoroacetic acid]
[1]
  Effect of Exemplary Compounds on Cell Viability, K562: A (A represents <100 nM)
[2]
  IC50: < 100 nM
[3]; Homo sapiens, RT-qPCR
  AC50: < 100 nM
[3]; [4]
  IC50: < 100 nM
[3]; [5]
  IC50: < 100 nM

## CC(C)N[C@@H]1CCN(c2ccc3nc(-c4cc5cn(C)nc5c(F)c4O)ccc3n2)C1 (single isomer, unassigned) [Compound 285]
[1]
  Effect of Exemplary Compounds on Cell Viability, K562: A (A represents <100 nM)
[2]
  IC50: < 100 nM
[3]; Homo sapiens, RT-qPCR
  AC50: < 100 nM
[3]; [4]
  IC50: < 100 nM
[3]; [5]
  IC50: < 100 nM

## CC(C)N[C@H]1CCN(c2ccc3nc(-c4cc5cn(C)nc5c(F)c4O)ccc3n2)C1 (single isomer, unassigned) [Compound 286]
[1]
  Effect of Exemplary Compounds on Cell Viability, K562: A (A represents <100 nM)
[2]
  IC50: < 100 nM
[3]; Homo sapiens, RT-qPCR
  AC50: < 100 nM
[3]; [4]
  IC50: < 100 nM
[3]; [5]
  IC50: < 100 nM

## Cc1c(O)c(-c2ccc3nc(N4CC[C@@H](NC5CCC5)C4)ccc3n2)cc2cn(C)nc12 (single isomer, unassigned) [Compound 289]
[1]
  Effect of Exemplary Compounds on Cell Viability, K562: A (A represents <100 nM)
[2]
  IC50: < 100 nM
[3]; Homo sapiens, RT-qPCR
  AC50: < 100 nM
[3]; [4]
  IC50: < 100 nM
[3]; [5]
  IC50: < 100 nM

## Cc1c(O)c(-c2ccc3nc(N4CC[C@H](NC5CCC5)C4)ccc3n2)cc2cn(C)nc12 (single isomer, unassigned) [Compound 290]
[1]
  Effect of Exemplary Compounds on Cell Viability, K562: A (A represents <100 nM)
[2]
  IC50: < 100 nM
[3]; Homo sapiens, RT-qPCR
  AC50: < 100 nM
[3]; [4]
  IC50: < 100 nM
[3]; [5]
  IC50: < 100 nM

## Cc1nc2cc(O)c(-c3ccc4nc(N5CCC(NCC6CC6)C5)ccc4n3)cc2o1 (single isomer, unassigned) [Compound 291, 6-(6-{3-[(cyclopropylmethyl)amino]pyrrolidin-1-yl}-1,5-naphthyridin-2-yl)-2-methyl-1,3-benzoxazol-5-ol]
[1]
  Effect of Exemplary Compounds on Cell Viability, K562: B (B represents 100-1000 nM)
[2]
  IC50: 100 to 1000 nM
[3]; Homo sapiens, RT-qPCR
  AC50: 100 to 1000 nM
[3]; [4]
  IC50: 100 to 1000 nM
[3]; [5]
  IC50: 100 to 1000 nM

## Cc1nc2cc(O)c(-c3ccc4nc(N5CCC(NCC6CC6)C5)ccc4n3)cc2o1 (single isomer, unassigned) [Compound 292, 6-(6-{3-[(cyclopropylmethyl)amino]pyrrolidin-1-yl}-1,5-naphthyridin-2-yl)-2-methyl-1,3-benzoxazol-5-ol]
[1]
  Effect of Exemplary Compounds on Cell Viability, K562: B (B represents 100-1000 nM)
[2]
  IC50: 100 to 1000 nM
[3]; RT-qPCR
  AC50: 100 to 1000 nM
[3]; HTT canonical junction mRNA, RT-qPCR, read-out: HTT CJ (decrease in CJ mRNA levels, IC50)
  IC50: 100 to 1000 nM
[3]; canonical junction qPCR panel, Table 4, read-out: HTT IC50 (decrease in CJ mRNA levels)
  IC50: 100 to 1000 nM

## Cc1nc2c(C)c(O)c(-c3ccc4nc(N5CC[C@@H](NCC6CC6)C5)ccc4n3)cc2o1 (single isomer, unassigned) [Compound 295]
[1]
  Effect of Exemplary Compounds on Cell Viability, K562: B (B represents 100-1000 nM)
[2]
  IC50: 100 to 1000 nM
[3]; Homo sapiens, RT-qPCR
  AC50: < 100 nM
[3]; [4]
  IC50: < 100 nM
[3]; [5]
  IC50: < 100 nM

## Cc1nc2c(C)c(O)c(-c3ccc4nc(N5CC[C@H](NCC6CC6)C5)ccc4n3)cc2o1 (single isomer, unassigned) [Compound 296]
[1]
  Effect of Exemplary Compounds on Cell Viability, K562: B (B represents 100-1000 nM)
[2]
  IC50: < 100 nM
[3]; Homo sapiens, RT-qPCR
  AC50: < 100 nM
[3]; [4]
  IC50: < 100 nM
[3]; [5]
  IC50: < 100 nM

## Cn1cc2cc(-c3ccc4nc(N5CC[C@@H](N[C@H]6C[C@@H](F)C6)C5)ccc4n3)c(O)cc2n1 (single isomer, unassigned) [Compound 300]
[1]
  Effect of Exemplary Compounds on Cell Viability, K562: B (B represents 100-1000 nM)
[2]
  IC50: < 100 nM
[3]; Homo sapiens, RT-qPCR
  AC50: < 100 nM
[3]; [4]
  IC50: < 100 nM
[3]; [5]
  IC50: < 100 nM

## Cn1cc2cc(-c3ccc4nc(N5CC[C@@H](NCC6CC6)C5)ccc4n3)c(O)c(F)c2n1 (single isomer, unassigned) [Compound 303]
[1]
  Effect of Exemplary Compounds on Cell Viability, K562: A (A represents <100 nM)
[2]
  IC50: < 100 nM
[3]; Homo sapiens, RT-qPCR
  AC50: < 100 nM
[3]; [4]
  IC50: < 100 nM
[3]; [5]
  IC50: < 100 nM

## Cn1cc2cc(-c3ccc4nc(N5CC[C@H](NCC6CC6)C5)ccc4n3)c(O)c(F)c2n1 (single isomer, unassigned) [Compound 304]
[1]
  Effect of Exemplary Compounds on Cell Viability, K562: A (A represents <100 nM)
[2]
  IC50: < 100 nM
[3]; Homo sapiens, RT-qPCR
  AC50: < 100 nM
[3]; [4]
  IC50: < 100 nM
[3]; [5]
  IC50: < 100 nM

## Cn1cc2cc(-c3ccc4nc(N5CC[C@@H](NC6CC6)C5)ccc4n3)c(O)c(F)c2n1 (single isomer, unassigned) [Compound 305]
[1]
  Effect of Exemplary Compounds on Cell Viability, K562: A (A represents <100 nM)
[2]
  IC50: < 100 nM
[3]; Homo sapiens, RT-qPCR
  AC50: < 100 nM
[3]; [4]
  IC50: < 100 nM
[3]; [5]
  IC50: < 100 nM

## Cn1cc2cc(-c3ccc4nc(N5CC[C@H](NC6CC6)C5)ccc4n3)c(O)c(F)c2n1 (single isomer, unassigned) [Compound 306]
[1]
  Effect of Exemplary Compounds on Cell Viability, K562: A (A represents <100 nM)
[2]
  IC50: < 100 nM
[3]; Homo sapiens, RT-qPCR
  AC50: < 100 nM
[3]; [4]
  IC50: < 100 nM
[3]; [5]
  IC50: < 100 nM

## Cc1nc2c(F)c(O)c(-c3ccc4nc(N5CC[C@@H](NC6CCC6)C5)ccc4n3)cc2o1 (single isomer, unassigned) [Compound 307]
[1]
  Effect of Exemplary Compounds on Cell Viability, K562: A (A represents <100 nM)
[2]
  IC50: < 100 nM
[3]; Homo sapiens, RT-qPCR
  AC50: < 100 nM
[3]; [4]
  IC50: < 100 nM
[3]; [5]
  IC50: < 100 nM

## Cc1nc2c(F)c(O)c(-c3ccc4nc(N5CC[C@H](NC6CCC6)C5)ccc4n3)cc2o1 (single isomer, unassigned) [Compound 308]
[1]
  Effect of Exemplary Compounds on Cell Viability, K562: A (A represents <100 nM)
[2]
  IC50: < 100 nM
[3]; Homo sapiens, RT-qPCR
  AC50: < 100 nM
[3]; [4]
  IC50: < 100 nM
[3]; [5]
  IC50: < 100 nM

## Cc1nc2c(C)c(O)c(-c3ccc4nc(N5CC[C@@H](NC6(C)CC6)C5)ccc4n3)cc2o1 (single isomer, unassigned) [Compound 310]
[1]
  Effect of Exemplary Compounds on Cell Viability, K562: A (A represents <100 nM)
[2]
  IC50: < 100 nM
[3]; Homo sapiens, RT-qPCR
  AC50: < 100 nM
[3]; [4]
  IC50: < 100 nM
[3]; [5]
  IC50: < 100 nM

## Cc1nc2c(C)c(O)c(-c3ccc4nc(N5CC[C@H](NC6(C)CC6)C5)ccc4n3)cc2o1 (single isomer, unassigned) [Compound 311]
[1]
  Effect of Exemplary Compounds on Cell Viability, K562: C (C represents 1000-9999 nM)
[2]
  IC50: 100 to 1000 nM
[3]; Homo sapiens, RT-qPCR
  AC50: < 100 nM
[3]; [4]
  IC50: < 100 nM
[3]; [5]
  IC50: < 100 nM

## Cc1nc2c(C)c(O)c(-c3ccc4nc(N5CC[C@@H](NC(C)C)C5)ccc4n3)cc2o1 (single isomer, unassigned) [Compound 313]
[1]
  Effect of Exemplary Compounds on Cell Viability, K562: A (A represents <100 nM)
[2]
  IC50: < 100 nM
[3]; Homo sapiens, RT-qPCR
  AC50: < 100 nM
[3]; [4]
  IC50: < 100 nM
[3]; [5]
  IC50: < 100 nM

## Cc1nc2c(C)c(O)c(-c3ccc4nc(N5CC[C@H](NC(C)C)C5)ccc4n3)cc2o1 (single isomer, unassigned) [Compound 314]
[1]
  Effect of Exemplary Compounds on Cell Viability, K562: A (A represents <100 nM)
[2]
  IC50: < 100 nM
[3]; Homo sapiens, RT-qPCR
  AC50: < 100 nM
[3]; [4]
  IC50: < 100 nM
[3]; [5]
  IC50: < 100 nM

## Cn1cc2cc(-c3ccc4nc(N5CC[C@@H](NC6CCC6)C5)ccc4n3)c(O)c(F)c2n1 (single isomer, unassigned) [Compound 316]
[1]
  Effect of Exemplary Compounds on Cell Viability, K562: A (A represents <100 nM)
[2]
  IC50: < 100 nM
[3]; Homo sapiens, RT-qPCR
  AC50: < 100 nM
[3]; [4]
  IC50: < 100 nM
[3]; [5]
  IC50: < 100 nM

## Cc1cn2nc(-c3ccc4nc(N5CCC(NC6CC6)C5)ccc4n3)c(O)c2c(C)n1 (stereo not shown) [Compound 252]
[2]
  IC50: 100 to 1000 nM
[3]; Homo sapiens, RT-qPCR
  AC50: 100 to 1000 nM
[3]; [4]
  IC50: < 100 nM
[3]; [5]
  IC50: < 100 nM
